Data as given in patent publication US4983620A, “Pharmacologically active alkylthiobenzimidazole derivatives and process for the preparation thereof” (Dompe Farmaceutici S.p.A., priority 1988, dated 1991).
Structures can show the parent of a compound that is named as a salt.

Experiments:
[1] = test system: mortality induced by histamine; assay: Effect on the mortality induced by histamine; format: in vivo, male albino guinea pigs (Dunkin-Hartley); conditions: Cavia porcellus, ip, 30 minutes before 1.25 mg/kg i.v. histamine dihydrochloride; guinea pigs; read-out: Histamine mortality ID50
Protocol: The method described by Romer D. et al., (Med. Welt 17, 791, 1966) was followed and the tests were carried out on male albino guinea pigs (Dunkin-Hartley), weighing 350-450 g, which were kept in cages with a grid floor, on an empty stomach for 24 hrs and with water ad libitum.
The compounds (I) were dissolved in saline solution and intraperitoneally administered to the animals: 30 minutes later the same animals were intravenously treated with 1.25 mg/kg of histamine dihydrochloride in saline solution.
It was evaluated ID50 which corresponds to the amount of the compound able to inhibit 50% of the mortality induced by histamine: the estimation of ID50 was carried out by applying the `probit` method (Finney D. J. "Statistical Method in Biological Assay" p. 512, 1957).

[2] = test system: mortality induced by compound 48/80; assay: Effect on the mortality induced by compound 48/80; format: in vivo, Sprague Dawley Nos male rats; conditions: Rattus norvegicus, ip, 4 h; i.p., 30 minutes before 2 mg/kg i.v. compound 48/80; rats; read-out: Compound 48/80 mortality ID50
Protocol: The tests were carried out according to the method described by C. J. E. Niemergeers et al., Arch. Int. Pharmacodyn., 234,164,-1978. Sprague Dawley Nos male rats (Nossan, Correzzana, Milano) weighing 140-150 g, divided into groups of 10 animals each, on an empty stomach for 24 hrs and with water ad libitum, were kept in cages with a grid floor, then treated intravenously with 2 mg/kg of compound 48/80 (1 ml/rat). The compound (I) or the carrier were dissolved in water (5 ml/kg) and intraperitoneally administered to the animals 30 minutes before the treatment with the compound 48/80. The mortality occurred in the group of treated animals during the first 4 hours following the treatment was noted down. The results were expressed as the number of animals dead with respect to the number of treated animals.
The experimental data were submitted to the variance analysis and to the subsequent multiple comparisons according to Dunnett (D. J. Finney, "Statistical Method in Biological Assay", Ed. L. Griffin and Co., Ltd., pg. 152-157, Edition Ames, Iowa, 1971).

[3] = Effect on the sleeping time; format: in vivo; conditions: 25 mg/kg i.p.
[4] = Acute toxicity (LD50) on mice; conditions: mouse, in vivo, ip
Protocol: The Letal Dose50 (LD50) was evaluated on mice using Swiss Nos (Nossan, Correzzana, Milano) mice weighing 18-20 g each. The animals, divided into groups of 10 animals each (5M+5F), were on an empty stomach for 18 hrs, with water ad libitum, and kept in cages with a grid floor. The compounds (I) were dissolved in water or suspended in 0.5% carboxymethylcellulose and intraperitioneally administered to the animals (10 ml/kg). The mortality occurred in the tested animals within the following 6 hours was noted down. At the expiry of the 6th hour, the animals were allowed to eat up to the end of the experimentation which lasted 14 days. During this period all the toxic symptoms and the mortality occurring were noted.
The animals which died during the test period and those which were sacrificed at the end of the same, underwent autopsy for a macroscopic examination of their main organs. The experimental data were statistically compared with the X^2 method and LD50 was extrapolated by the `probit` method.

[5] = molecular target: T1, H1 histaminergic receptors (Rattus norvegicus, UniProt P31390); assay: Affinity towards H1 histaminergic receptors ([3H]Mepyramine displacement, rat brain homogenates); conditions: 2 nM [3H]Mepyramine, 25° C., 15 minutes, pH 7.5, read-out: H1-receptor binding IC50
T1 construct: in homogenates of rat brain; from tissue; host or cells: rat whole brain homogenate
T1 sequence (P31390 whole entry): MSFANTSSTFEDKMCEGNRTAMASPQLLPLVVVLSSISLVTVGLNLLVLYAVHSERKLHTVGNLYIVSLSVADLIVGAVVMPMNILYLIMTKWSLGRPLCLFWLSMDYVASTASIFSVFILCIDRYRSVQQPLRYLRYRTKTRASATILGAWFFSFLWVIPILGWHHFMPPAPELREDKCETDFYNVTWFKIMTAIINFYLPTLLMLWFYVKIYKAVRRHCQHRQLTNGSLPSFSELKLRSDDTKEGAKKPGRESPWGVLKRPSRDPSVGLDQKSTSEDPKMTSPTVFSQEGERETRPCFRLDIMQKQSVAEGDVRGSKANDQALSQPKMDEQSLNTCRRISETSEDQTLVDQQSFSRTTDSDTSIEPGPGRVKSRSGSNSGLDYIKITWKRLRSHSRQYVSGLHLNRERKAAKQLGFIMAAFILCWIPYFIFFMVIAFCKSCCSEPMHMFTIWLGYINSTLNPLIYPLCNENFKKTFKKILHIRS
Protocol: The affinity of the examined compounds towards H1 histaminergic receptors as evaluated by displacement curves which were obtained of different concentrations, against [^3 H]
The incubation was performed at 25° C. for 15 minutes, in a final volume of 1 ml of […] Na/K phosphate buffer, pH 7.5, in the presence of 2 nM [^3 H] Mepyramina and 1.5 mg of cerebral protein. Aspecific binding was defined as the residual radioactivity bound in the presence of […] Clemastine. The test compounds were dissolved in phosphate buffer or dimethylsulfoxide (DMSO), the final concentration of DMSO was 0.5%. Incubation was terminated by filtration through glass fiber GF/B filters pre-soaked with 0.1% polyethylenimine (PEI). The radioactivity trapped by filters was counted by liquid scintillation.

Structure (SMILES)	ED50 [1]	ED50 [2]	Sleeping time % increase [3]	LD50 at 336 h [4]	IC50 [5]
CCOCCn1c(SCCN(C)C)nc2ccccc21 [Example 3, 1-(2-Ethoxyethyl)-2-(2-dimethylaminoethylthio)benzimidazole. 2 HCl]	0.0109 mg/kg	0.008 mg/kg	5%	> 100 mg/kg	2.4 nM
CCOCCn1c(SCC(C)N(C)C)nc2ccccc21 (centres unmarked) [Example 5, 1-(2-Ethoxyethyl)-2-(2-dimethylaminoisopropylthio)benzimidazole]	0.05 mg/kg	0.009 mg/kg	10%	~100 mg/kg	6.1 nM
CC(C)(C)c1ccc(C(O)CCCN2CCC(C(O)(c3ccccc3)c3ccccc3)CC2)cc1 (centres unmarked) [Terfenadine, reference compound]	0.735 mg/kg	1.99 mg/kg	8%	> 100 mg/kg	
